In one data set the test system is C57Bl/6J (Ob/Ob) mouse. Particulars: Australian patent No. 693478; cited from earlier work.
Data set [1] has as its system patients suffering from growth hormone deficiency. Particulars: several studies, references 1-24; cited from earlier work.
In another data set the test system is healthy lean males. It is filed as in vivo, human. The method, then: The selection of 25, 50 and 100 μg/kg doses of AOD9604 used in this study was based on the results from a previous Phase I study, conducted from February-June 2001, in healthy lean males using a dose range of 25-400 μg/kg AOD9604.
Data set [2] has as its system obese adult male subjects. The data set is described as follows: Double-blind multiple oral dose escalation study of AOD9604 (Example 3, Phase 2A). It counts as in vivo, human. From the text:
The objective of this study was to characterise the safety and tolerability and the pharmacodynamic profile of AOD9604 following multiple oral administration to obese adult male subjects.
This was a double-blind, placebo-controlled, 3 period, oral dose, dose escalation study with randomization directed such that each subject received 7 doses of active study drug or placebo over one 7-day period, i.e. one dose per day for 7 days. There were up to three dose levels of AOD9604 and placebo studied in 3 cohorts of 12 subjects each. In each study period, 12 subjects were randomised so that 9 received active study drug and 3 received placebo. There was a period of 7 days between study periods to allow for appropriate safety review and permission to progress to the next dose level.
The eligibility criteria of subjects were as for Example 2, except that the age range was 18 to 60 years of age, and the BMI threshold was ≧30 kg/m^2, since the primary aim of the study was safety assessment. The restrictions on the subjects and the conduct of the study again were generally as in Example 2.
There were three study periods, and the dose strengths used were 10 mg, 30 mg, 60 mg and placebo, with seven doses per study period. The formulation of AOD9604 and placebo were as for Example 2.
For each treatment, capsules were administered orally every day for 7 days with 240 mL of room temperature water following at least a 12 hour overnight fast.
The patients were asked to complete the SF-36 Quality of Life Questionnaire (Ware J. J. and Sherbourne C. D. (1992) The MOS 36-item short-form health survey (SF-36). I. Conceptual framework and item selection. Medical Care; 30:473-83) at days 0, 8 and 14. The results are illustrated in FIG. 2, A and B and FIG. 3, A and B. The SF-36 questionnaire is different to the questionnaire used in the Phase 2A […] single dose trial of Example 2. SF-36 provides only positive numerical values for mood assessment, with higher values indicating greater happiness, and lower values indicating lower happiness. (The graphs in FIGS. 2 and 3 however do have some negative values because they are representing the change in mood from pre-treatment.) FIGS. 2 and 3 show a similar bell-shaped dose response on mood as that observed in Example 1 (only it is a reversed bell-shape in comparison to Example 1). […] There was an improvement in the mental aggregate scores, relative to placebo, at the 10 mg dose on day 8, and a worsening at the 30 mg and 60 mg doses relative to placebo.

For data set [3], the system named is obese adult male subjects. The data set is described as follows: Double-blind, placebo-controlled single intravenous dose study of AOD9604 (Example 1). It counts as in vivo, human. On the procedure: The objective of this study was to characterise the safety, tolerability and pharmacodynamic effects of AOD9604 following single intravenous administration to obese adult male subjects. The study was performed by CMAX Pty Ltd under contract to Metabolic Pharmaceuticals Ltd.
The study was designed as a double-blind, placebo-controlled, 4×4 Williams Latin Square design, intravenous dose study included twenty four (obese Body mass index (BMI) of ≧35 kg/m^2 and a waist circumference of ≧110 cm) adult subjects with each subject receiving active study drug on each of three occasions and placebo on one occasion. Treatment allocation was randomised according to a Master Randomisation Schedule.
Subjects who provided written informed consent and who met all inclusion/exclusion criteria were randomised to receive each of the four treatments according to the study Master Randomisation Schedule. The subjects were randomised to receive a single dose of 25, 50 and 100 μg/kg AOD9604 and a single dose of placebo (5% mannitol solution) over the four periods of the study. Dose administration was by intravenous infusion, and was conducted over a period of 10 minutes.
During each in-clinic stay, blood samples were collected at specified times both prior to and following dose administration for the determination of pharmacodynamic parameters of non-esterified fatty acids (NEFA), glycerol, glucose and IGF-1. For the purposes of safety monitoring, the physical condition (physical examination, blood pressure, pulse, temperature and general well being) of the subjects was monitored both prior to and at specified intervals during each study period. ECG monitoring was performed prior to the infusion, at the end of the infusion and at specified times following the end of the infusion. Blood samples were also collected for assessment of haematological and biochemical parameters. Subjects were released from the clinic following the 24 hour post-dose blood sample and physical examination. Subjects returned to the clinic for the following period after a 7-day washout period. Within 14 days of the final period (Period 4), an Exit Evaluation was performed, involving the following assessments: physical examination (including ECG monitoring), body height and weight determination, vital sign measurements, questions regarding adverse events, collection of blood samples for the assessment of haematological and biochemical parameters, and collection of a urine sample for urinalysis and microscopy. A further 5 mL blood sample was collected and the serum stored for possible antibody analysis to be done at a later date.
Treatment A: A single dose of 25 μg/kg AOD9604 administered intravenously via an infusion pump over a 10 minute period.
Treatment B: A single dose of 50 μg/kg AOD9604 administered intravenously via an infusion pump over a 10 minute period.
Treatment C: A single dose of 100 μg/kg AOD9604 administered intravenously via an infusion pump over a 10 minute period.
Each subject received one of each of three doses of the active study drug, AOD9604 (25, 50, and 100 μg/kg) on three occasions and a placebo on one occasion. The doses were administered as intravenous infusions of 10 minute duration with a wash-out period of 7 days between each consecutive treatment. Subjects were not permitted to eat or drink anything, except for water, for at least 10 hours prior to and 2 hours following administration of the dose. Meals were timed in relation to the end of dosing, as follows: Snack (2 hours and 5 minutes), Lunch (4 hours and 5 minutes), Dinner (10 hours and 5 minutes) and Snack (13 hours and 5 minutes).

The test system of data set [4] is obese adult male subjects. In words: Double-blind single oral dose study of AOD9604 (Example 2, Phase 2A). It is filed as in vivo, human. From the text:
The objective of this study was to characterise the safety, tolerability, pharmacodynamic and pharmacokinetic effects of AOD9604 following single oral administration to obese adult male subjects.
The study was a double-blind, placebo controlled, 4×4 Williams Latin Square design, single oral dose study, planned to include 16 subjects. Each subject received active study drug on each of three occasions and placebo on one occasion. There was a washout period of 14 days between the doses administered in each study period.
Eligibility criteria were the same as for Example 1, except that the age range of the subjects was 35 to 60 years of age inclusive.
There were four study treatments, and each subject received each of the four treatments on four separate occasions, separated by a fourteen day wash out period. The dose strengths were as follows: • 10 mg (76.9 μg/kg for 130 kg subject); • 30 mg (230.8 μg/kg for 130 kg subject); • 60 mg (461.5 μg/kg for 130 kg subject); and • placebo.
The active pharmaceutical formulation was Size-0 capsules (Shionogi Qualicaps Co. Ltd.) of 10 mg AOD9604 containing 3.9% AOD9604, 84.1% Mannitol (USP) and 12% PEG3350, USP. Placebo capsules contained excipients only.
For each treatment, capsules were administered orally with 240 mL of room temperature water following at least a 12 hour overnight fast. Study personnel inspected the oral cavity to confirm that the subject has ingested the study treatment following each dose.
In the Phase 2A single dose intravenous trial, reported in Example 1, mild euphoria was reported by several patients who received drug and none who received placebo. The patients taking part in this single dose oral treatment were therefore asked to complete the Nottingham Health Profile questionnaire (see Wiklund I. (1990) The Nottingham Health Profile—a measure of health-related quality of life. Scand. J. Prim. Health Care Suppl. 1:15-8) before dose and 7 days after dose.

Where [5] appears, read: single iv infusion 25, 50 or 100 μg/kg, only in periods with active drug, none with placebo.

“Also recorded” adds a separate entry of the source.

For the substance “hGH 177-191: synthetic peptide corresponding to amino acid residues 177-191 of the human growth hormone sequence (LRIVQCRSVEGSCGF; UniProt P01241 203-217, looked up, fragment)”, in the data set with C57Bl/6J (Ob/Ob) mouse, the “body weight gain and adipose tissue mass” value is “reduce body weight gain and adipose tissue mass”.
On to “Intact growth hormone: intact growth hormone, the full hormone from which the C-terminal fragments derive”, for which the effect on mood result in data set [1] was “positive effects on mood”.
For Tyr-hGH 177-191 [AOD9604], in the data set with healthy lean males (50 μg/kg), the “pharmacodynamic response at 50 μg/kg” value is listed as “a response had been shown”. In addition, the “pharmacodynamic response at high dose” value with healthy lean males (dose increased to 200 μg/kg and higher) is listed as “response diminished”. Further, in the data set on healthy lean males (iv dose range 25-400 μg/kg), the pharmacodynamic response result was “A pharmacodynamic response was seen”. Further, the gastrointestinal adverse effects entry in data set [2] (60 mg dose group, particularly in the hour after dose) was “increase in mild gastrointestinal effects”. Also, the “significance of body weight effect in subgroup” value in data set [2] (age 35+ and BMI 35+ group, p<0.05) is on record as “statistically significant”. Moreover, the “SF-36 mental aggregate relative to placebo, all doses” value in data set [2] (at 8 days vs day 0, 10, 30, 60 mg/day oral for 7 days) was “improvement in the mental aggregate for all doses relative to placebo”. In data set [2] (at 8 days, 10 mg/day oral, p<0.05), the “significance of SF-36 improvement at 10 mg” value is on record as “statistically significant”. Further, in data set [2] (at 14 days, dose 60 mg/day, only aggregate/dose worse than placebo), the “SF-36 physical aggregate relative to placebo” value is “worse result that the placebo”. Moreover, in data set [2] (day 8, 10 mg/day oral), the “SF-36 mental aggregate scores relative to placebo, 10 mg” value is given as “improvement”. Moreover, the “SF-36 mental aggregate scores relative to placebo, 30 mg and 60 mg” value in data set [2] (day 8, 30 mg and 60 mg/day oral) was “worsening”. Moreover, the “body weight difference (anti-obesity effect)” value in data set [2] (morning of day 1 vs day 8, bell-shaped dose response) is reported as “clear activity”. In data set [2] (multiple oral doses, 7 days), the “incidence of adverse events, active vs placebo” value is “no observable trends”; the “vital signs, ECG, physical examination and clinical laboratory assessments” value is “no clinically significant changes”. Also, the “mean serum NEFA compared to placebo” value in data set [3] (2 hours post dose, all AOD9604 doses (25, 50, 100 μg/kg iv)) was “rose more”. Also, the severity of euphoria entry in data set [3] (after a single iv dose of active drug) is “mild to moderate euphoria; also recorded: mild or moderate euphoria”. Moreover, the “weight loss in older patients compared to placebo” value in data set [3] (aged 35+ (N=13), highest dose 100 μg/kg iv) was “highly significant weight loss”. Also, the “body weight change compared to placebo” value in data set [3] (measured 1 week after each iv dose) is recorded as “lower in the treated groups than in those receiving placebo”. For the same substance, the “significance of NEFA effect in older patients” value in data set [3] (patients aged 35+, 2 hours post dose) is reported as “highly significant”. For the same substance, in data set [3] (setting [5]), the “subjects experiencing euphoria (number of subjects)” value is 5/23 and the “subjects experiencing euphoria (percentage)” value was found to be 21.7%. Further, the “mood, Nottingham Health Profile questionnaire, response by dose” value in data set [4] (30 mg single oral dose, lower is happier) is given as “greatest response”. Besides, the “non-esterified fatty acid (NEFA) levels compared to placebo” value in data set [4] (1, 2 and 4 hours after AOD9604 27.6 mg oral, p<0.05) is “statistically significantly increased”. For the same substance, in data set [4] (AOD9604 55.2 mg oral, compared with 27.6 mg), the NEFA response result is given as “lower response”. In data set [4] (before dose vs 7 days after dose, all single oral doses (10, 30, 60 mg), placebo worsened), the “mood, Nottingham Health Profile questionnaire” value is on record as “improvement of mood”. Moreover, in data set [4] (over the oral dose range 10-60 mg single dose), the tolerability entry is “well tolerated”. Besides, in data set [4] (single oral doses), the “incidence of adverse events, active vs placebo” value was “no observable trends”; the “vital signs, ECG, physical examination and clinical laboratory assessments” value was “no clinically significant changes”.

(Values after US20050197286A1, “Method for control of depression using c terminal growth hormone (gh) fragment” (priority 2002, published 2005).)
